Results published in patent US11318190B2, “Methods and compositions for treating liver disease” (UNITED STATES GOVERNMENT AS REPRESENTED BY THE DEPARTMENT …, priority 2017, dated 2022).
“Also recorded” adds a separate entry of the source.

Assays:
[1] = tested on: dnTGF-βRII mice; assay: dnTGF-βRII mice 32-34 wk (late stage PBC model) treated 1 wk by osmotic minipump; type: in vivo, mouse; settings: for intrahepatic bile duct mass (IBDM, CK-19): 1 wk minipump
Procedure: Briefly, we used wild-type (WT), dnTGFβRII 12 wk and dnTGFβRII 34 wk mice treated with control or SR antagonist (SCT 5-27) minipump (10 μg/kg/day) for 1 wk. Hepatic damage was shown by H&E. IBDM and cholangiocyte proliferation were measured by immunohistochemistry for CK-19 and Ki67, respectively. Biliary apoptosis was evaluated by TUNEL staining. Senescence was measured in cholangiocytes by immunofluorescence for CCL2 or p16 co-stained with CK-19 (to image bile ducts) and SA-β-Galactosidase activity. Hepatic fibrosis was assessed by qPCR for collagen-1a and α-SMA in total liver, and quantification of Sirius Red staining. Hepatic stellate cell (HSC) activation was evaluated by immunofluorescence (IF) for Syp-9. HSC senescence was evaluated by IF for CCL2 or p16 co-stained with desmin (to visualize HSCs). Secretin levels in serum and bile were measured by EIA. Bile and serum were obtained from human control, early PBC and advanced PBC patients, and secretin was evaluated by EIA.
All animal procedures were performed according to protocols approved by the Baylor Scott & White Health IACUC Committee. Transgenic mice expressing a dominant-negative form of the human transforming growth factor-beta receptor II (dnTGF-βRII) were obtained from Dr. M. Eric Gershwin at UC Davis Health (Sacramento, Calif.), and background-matched wild-type (WT, strain C57BL/6) mice were purchased from Charles River Laboratories (Wilmington, Mass.); the breeding colony is established in our animal facility. Animals were maintained in micro-isolator cages in a temperature-controlled environment with 12/12-hr light/dark cycles and fed ad libitum standard chow with free access to drinking water. Studies were performed in 12 wk-old WT mice, and 12 wk-old (mimic early stage PBC) and 32 wk-old (mimic late stage PBC) female and male dnTGF-βRII mice (25-30 gm) that were treated with either saline, secretin (Sct; 2.5 nmoles/kg body weight per day; Bachem, Torrance, Calif.) or the secretin receptor (SR) antagonist, Sec 5-27 (10 μg/kg body weight per day; Thermo Fisher Scientific, Waltham, Mass.) for 1 wk by intraperitoneally implanted osmotic minipump. Liver tissue samples and blocks (formalin-fixed, paraffin-embedded and OCT-embedded), serum, bile, cholangiocytes, and cholangiocyte supernatants (after incubation at 37° C. for 4 hr) were collected as described.
Hematoxylin and eosin (H&E) staining was performed in formalin-fixed, paraffin-embedded liver sections (4-5 μm, 3 samples from 3 different animals) to determine liver morphology. H&E stained liver sections were evaluated by a board-certified pathologist to assess the degree of lobular damage, hepatic necrosis and portal inflammation. At least 10 different portal areas were evaluated for each parameter. Liver sections were examined in a coded fashion by BX-51 light microscopy (Olympus, Tokyo, Japan) equipped with a camera (See, Mancinelli, R et al., Ischemia reperfusion of the hepatic artery induces the functional damage of large bile ducts by changes in the expression of angiogenic factors. Am J Physiol Gastrointest Liver Physiol 2015; 309:G865-873 (2015); Taffetani S et al., Prolactin stimulates the proliferation of normal female cholangiocytes by differential regulation of Ca2+-dependent PKC isoforms, BMC Physiol 7:6 (2007)).
Serum levels of alkaline phosphatase (ALP) and γ-glutamyltransferase (γGT) are commonly used to diagnose PBC (Heathcote, E J, Management of primary biliary cirrhosis. The American Association for the Study of Liver Diseases practice guidelines, Hepatology 31:1005-1013 (2000)); therefore, were measured serum levels of ALP and γGT in mouse serum samples using the Alkaline Phosphatase Assay Kit and γ-Glutamyltransferase Activity Colorimetric Assay Kit, respectively (Abcam; Cambridge, Mass.).
Early stage PBC is identified by cholangiocyte proliferation, whereas late stage PBC is characterized by ductopenia. […]

[2] = tested on: IMCLs; assay: IMCLs treated with Sct with/without microRNA 125b mimic precursor, TGF-β1 or r-VEGFA (Example 4); type: cell-based, mouse; settings: Sct 10 nM, 12 hr
Procedure: Cholangiocytes were obtained by immunoaffinity separation, Cholangiocytes were obtained by immunoaffinity separation as described herein above, using a monoclonal antibody (a gift from Dr. R. Faris, Brown University, Providence, R.I.) that is expressed by all intrahepatic cholangiocytes. Cell viability (greater than 97%) was assessed by trypan blue exclusion. HSCs were isolated by LCM as described herein above. Frozen liver sections (n=3, 10 μm thick) were incubated overnight with an antibody against desmin (marker of stellate cells). Following staining, desmin-positive HSCs were dissected from the slides by a LCM system Leica LMD7000 (Buffalo Grove, Ill.) and collected into a PCR tube before being analyzed. The RNA from HSCs was extracted with the Arcturus PicoPure RNA isolation kit (Thermo Fisher Scientific CO, Mountain View, Calif.). The in vitro studies were performed in our immortalized murine biliary cell lines (IMCLs) and human hepatic stellate cell lines (HHSteCs, Sciencell, Carlsbad, USA).
In biliary supernatants, the levels of TGF-β1 were measured by ELISA kits. […] We also evaluated by immunofluorescence the expression of VEGFR-2 in cell smears of IMCLs and HHSteCs. […]

[3] = dnTGF-βRII 32/34 wk, vs saline treated

Substance: secretin [Sct]
- biliary senescence (p16, p18, p21, CCL2) ([1]; dnTGF-βRII 32/34 wk): reduced
- cholangiocyte apoptosis (TUNEL) ([1]; dnTGF-βRII 32/34 wk): reduced
- collagen content / deposition (Sirius Red), hepatic fibrosis ([1]; dnTGF-βRII 32/34 wk): decreased; also recorded: reduced
- Sct, SR, CFTR and AE2 expression [1, 3]: increased expression
- intrahepatic bile duct mass (IBDM, CK-19) [1, 3]: increased
- intrahepatic bile duct mass (IBDM, CK-19) ([1]; dnTGF-βRII 32/34 wk, vs saline treated, listed as secretin): increased biliary mass in the late stage PBC mice back to normal levels
- collagen content / deposition (Sirius Red), hepatic fibrosis ([1]; dnTGF-βRII 32/34 wk, listed as secretin): significantly reduced
- HSC activation (SYP-9) ([1]; dnTGF-βRII 34 wk): reduced
- biliary growth / cholangiocyte proliferation ([1]; dnTGF-βRII 34 wk): increased
- liver damage (H&E) ([1]; dnTGF-βRII 34 wk): ameliorate; also recorded: reduced
- secretin levels (serum; serum and bile) ([1]; dnTGF-βRII 34 wk): increased
- Liver inflammation, Kupffer cell number ([1]; dnTGFβRII 12 and 34 wk as printed): reduced
- TBA levels ([1]; dnTGFβRII 34 wk): reduced
- serum levels of ALP and γGT ([1]; late stage PBC model): reduced
- TGF-β1 mRNA expression of IMCLs and TGF-β1 levels in IMCLs supernatant [2]: increased
